Assay results as given in PMC9879991, “Biomolecular condensates formed by designer minimalistic peptides” (Nature Communications, 2023).
No end group written: not given here.

Columns and labels:
[1] = Encapsulation efficiency of peptide droplets, fluorescein payload; assay type: physicochemical; details: C initial 10 µM, 20 mM peptide; for %EE: 20 mM Tris + 0.2 M NaCl pH 8, 15,000 g 10 min, supernatant absorbance 490 nm
Excerpt: Next, we studied how peptide composition affects the encapsulation efficiency of the droplets by using GFP, rhodamine B, and fluorescein as fluorescent payload model systems (Fig. 4). We analyzed the encapsulation efficiency of the fluorescent payloads by using both confocal microscopy and absorbance measurements of the payloads in the dilute vs. the condensed phase (Fig. 4a–c). […] WGR-1 has the highest EE of fluorescein. In addition to π-π interactions, WGR-1 might form hydrogen bonding with the hydroxyl groups or electrostatic interactions with the deprotonated carboxylic acid of the dye.
Stock solutions (1 mM) of the fluorescein and rhodamine B dye molecules were prepared in 20 mM Tris buffer. Coacervate solutions of 20 mM peptide were prepared in 20 mM Tris + 0.2 M NaCl at pH 8. From these, a volume of 148.5 µl was mixed with 1.5 µl of dye solution in a 1.5 ml Eppendorf tube and pipetted. After 10 min the samples were centrifuged at 15,000 × g for 10 min. A volume of 120 μl from the supernatant was collected and vortexed and then the absorbance of 35 μl triplicates was measured (at λ = 490 nm for fluorescein and λ = 555 nm for RhB) in a 384 well black plate by Biotek H1 synergy plate reader (purchased from Lumitron, Israel). For GFP, a 7.5 µl of 20 mM Tris buffer to a 7.5 μl GFP aliquot from the purchased stock solution. The 15 µl of GFP solution was added to 135 µl of peptide solution and was mixed in a 1.5 ml Eppendorf tube and pipetted. The concentration of GFP at the supernatant was measured via fluorescence. All experiments were performed in triplicate. The concentration of the supernatant solutions determinate by calibration curves. Imaging was made to 30 μl of uncentrifuged samples. Efficiency of encapsulation (%EE) was calculated using Eq. 2. 2 %EE=CT−Csup/CT

[2] = Phase diagram in tris buffer: pH at which turbidity (LLPS) appears vs peptide concentration; assay type: physicochemical; details: 0.2 M NaCl, room temperature; for pH at which turbidity (LLPS) appears: 20 mM tris, turbidity A500
Excerpt: We sought to design a library of LLPS-promoting peptide building blocks which form synthetic biomolecular condensates with tunable chemical composition and physical properties. We hypothesized that minimalistic variants of protein low complexity domains (LCDs) will self-assemble into liquid droplets through LLPS. Specifically, we envisioned that in order to keep the sequence length relatively short, the peptide composition should include high content of aromatic and basic amino acids that can interact through π–π or cation–π interactions. To test this hypothesis, we designed a primary sequence that contains various LLPS-promoting motifs. Inspired by LCDs of ribonucleoproteins (RNPs) and IDPs that are rich in arginine-glycine (RG) dyad or RGG triad repeats, we incorporated three repeats of an RG dyad (Fig. 1a), where glycine (Gly) provides flexibility and arginine (Arg) promotes electrostatic interactions with the terminal carboxylic group, cation- π or π interactions with aromatic amino acids (Fig. 1a). While both lysine (Lys) and Arg have basic side chain groups, the guanidine group of Arg delocalizes the charge due to the π bonded system and thus can promote more versatile binding modes compared to Lys, through cation–π and π–π interactions. Thus, considering that the Arg side chain can interact with side chains of aromatic amino acids, we incorporated tryptophan (Trp) and tyrosine (Tyr) into the peptide sequence at a 1:1 stoichiometry with Arg, with aromatic amino acids positioned at both ends of the sequence to enhance π–π stacking interactions. Finally, we considered the elastin-like polypeptide (ELP) repeating motif VPGXG. This pentapeptide sequence is a common LLPS-promoting motif used in engineered ordered/disordered polypeptides, where X can be any amino acid except proline (Pro), and a hydrophobic amino acid at this position promotes coacervation[39],[40]. […] Building on these previous findings, we incorporated the sequence WPGVG, thus obtaining the 14-mer peptide WGRGRGRGWPGVGY termed WGR-1 (Figs. 1a, 2a). WGR-1 forms droplets by self-coacervation at neutral pH in the presence of 0.2 M NaCl, which reduces the electrostatic repulsion of the basic peptide (Fig. 1b). We created a phase diagram of WGR-1 as a function of pH and peptide concentration in tris buffer by gradually increasing the pH and monitoring LLPS, as indicated by appearance of sample turbidity (Fig. 2b), where all experiments performed at room temperature. As expected, increasing peptide concentration decreased the pH in which visible turbidity and droplets are observed, where the critical LLPS concentration is 8 mM. To confirm that the turbidity is a result of LLPS and droplet formation rather than aggregation, we used bright field laser scanning confocal microscopy (Fig. 2c).
Fig. 2 Peptide sequence controls LLPS propensity and droplet formation. a Table of the designed peptide sequences. b Phase diagram of the peptides as a function of peptide concentration and pH, in tris buffer with 0.2 M NaCl, at room temperature. […] Source data are provided as a Source Data file. c Confocal microscopy bright field images of peptide liquid droplets formed at a concentration of 20 mM in Tris buffer at pH 8 with 0.2 M NaCl. Scale bars = 20 μm. Inset: macroscopic images of the peptide solutions. ‘Source data are provided as a Source Data file. TEXT PRINTED IN THE PICTURE: (b) WGR-1: LLPS | (b) WGR-2: No LLPS | (b) WGR-3: LLPS | (b) WGR-4: LLPS | (b) WGR-5: LLPS | (b) WGK: No LLPS DOUBTS OF THE COPYIST ABOUT THIS PICTURE: Panel b: "LLPS" / "No LLPS" are class labels printed inside the phase diagrams, with no numbers. In the diagrams with a curve, "LLPS" marks a region of the plot. / Panel c: the handwritten labels on the vials in the insets cannot be read with certainty and were left out. […]

[3] = solution NMR, S.D. in next row
Excerpt: Source data are provided as a Source Data file.
(1 picture or pasted object on this page, not shown here)

WGRGRGRGWPGVGY [WGR-1]
%EE ([1]; replicate 1, given as fraction): 0.888 | %EE ([1]; replicate 2, given as fraction): 0.8098 | %EE ([1]; replicate 3, given as fraction): 0.7632 | Encapsulation efficiency (EE) ([1]; 20 mM Tris + 0.2 M NaCl pH 8, supernatant absorbance 490 nm, mean of n=3, in percent): 82.0333% | differential NaCl-induced change, largest (residue P10): 5.5 Hz | pH at which turbidity (LLPS) appears ([2]; 8 mM peptide, mean of n=3): 8.483 | pH at which turbidity (LLPS) appears ([2]; 8 mM peptide, replicate 1): 8.43 | pH at which turbidity (LLPS) appears ([2]; 8 mM peptide, replicate 2): 8.47 | pH at which turbidity (LLPS) appears ([2]; 8 mM peptide, replicate 3): 8.55 | pH at which turbidity (LLPS) appears ([2]; 10 mM peptide, mean of n=3): 7.88 | pH at which turbidity (LLPS) appears ([2]; 10 mM peptide, replicate 1): 7.84 | pH at which turbidity (LLPS) appears ([2]; 10 mM peptide, replicate 2): 7.86 | pH at which turbidity (LLPS) appears ([2]; 10 mM peptide, replicate 3): 7.94 | pH at which turbidity (LLPS) appears ([2]; 15 mM peptide, mean of n=3): 7.483 | pH at which turbidity (LLPS) appears ([2]; 15 mM peptide, replicate 1): 7.45 | pH at which turbidity (LLPS) appears ([2]; 15 mM peptide, replicate 2): 7.51 | pH at which turbidity (LLPS) appears ([2]; 15 mM peptide, replicate 3): 7.49 | pH at which turbidity (LLPS) appears ([2]; 20 mM peptide, mean of n=3): 7.12 | pH at which turbidity (LLPS) appears ([2]; 20 mM peptide, replicate 1): 7.13 | pH at which turbidity (LLPS) appears ([2]; 20 mM peptide, replicate 2): 7.08 | pH at which turbidity (LLPS) appears ([2]; 20 mM peptide, replicate 3): 7.15 | pH at which turbidity (LLPS) appears ([2]; 30 mM peptide, mean of n=3): 6.85 | pH at which turbidity (LLPS) appears ([2]; 30 mM peptide, replicate 1): 6.82 | pH at which turbidity (LLPS) appears ([2]; 30 mM peptide, replicate 3): 6.88 | critical LLPS concentration ([2]; tris buffer, lowest of 5-30 mM at which turbidity/droplets form): 8 mM | D dilute phase (NMR), apparent diffusion coefficient [3]: 1.91E-10 m^2/sec
